Experimental findings from patent publication US11273131B2, “Pharmaceutical compositions with enhanced permeation” (AQUESTIVE THERAPEUTICS, INC., priority 2016, dated 2022) are described below.

A short description of data set [1]: Diazepam solubility in excipients. It is filed as physicochemical. The following applies: diazepam (API) in the excipient. The text has this: Diazepam was applied in the buccal area (cheek) to diffuse through the oral mucosa and enter directly into the bloodstream. Solubility of diazepam was also studied using various excipients.
The following excipients have also been studied to improve solubility.

The nature of data set [2]: Ex vivo permeation of epinephrine, Franz diffusion cell. The procedure:
A franz diffusion cell is obtained and prepared.
If testing films, one can perform the following next steps: (1) weigh films, punch to match diffusion area (or smaller), reweigh, record pre- and post-punching weight; (2) wet a donor area with approximately 100 μL of phosphate buffer; (3) place film on a donor surface, top with 400 μL of phosphate buffer, and start timers.
The tissue is dermatomed to precise thickness. • 4. […] The media is selected to ensure sink conditions. • 5.

Data set [3] in a line: Excipient properties (HLB, water solubility). In kind it is physicochemical. The following applies: of the excipient.
For data set [4] the following is noted: FIG. 6A, 6B.

Marks after values point to notes of the source that are not given here.

With `OCc1ccccc1` [Benzyl Alcohol], the “API Solubility mg/gm total mix” value in data set [1] was determined as 400 mg/gm total mix.
On to `CNC[C@H](O)c1ccc(O)c(O)c1` [Epinephrine Base], for which, in data set [2] (4.4 mg/mL base vs 8.00 mg/mL bitartrate), the “permeation, base solubilized in situ vs Epinephrine Bitartrate” value was “no differences were found”. In data set [2] (conc 4.4 mg/mL, solubilized in situ), the “Average Steady State Flux” value came out at 0.512 ug/cm2 * min.
On to `CNC[C@H](O)c1ccc(O)c(O)c1` [Epinephrine Bitartrate], for which the “permeation as a function of concentration” value in data set [2] was “increasing concentration resulted in increased permeation”. Also, the “permeation as a function of solution pH” value in data set [2] was “pH 5 was slightly more favorable as compared to pH 3”. In addition, the average flux in data set [2] (30 min, 16 mg/mL) was determined as 0 μg/cm2 * min; in data set [2] (45 min, 16 mg/mL), 0.2604 μg/cm2 * min; in data set [2] (60 min, 16 mg/mL), 0.3125 μg/cm2 * min; in data set [2] (120 min, 16 mg/mL) it was 0.6727 μg/cm2 * min; in data set [2] (180 min, 16 mg/mL), 1.076 μg/cm2 * min; in data set [2] (240 min, 16 mg/mL) it was 1.029 μg/cm2 * min. Further, the average flux in data set [2] (300 min, 16 mg/mL) is given as 1.25 μg/cm2 * min; in data set [2] (360 min, 16 mg/mL) it was 1.385 μg/cm2 * min. Further, the “Average Steady State Flux” value in data set [2] (360 min, 4 mg/mL) turned out to be 0.167 ug/cm2 * min; in data set [2] (360 min, 8 mg/mL), 0.466 ug/cm2 * min; in data set [2] (360 min, 16 mg/mL) it was 1.317 ug/cm2 * min; in data set [2] (360 min, 100 mg/mL), 2.942 ug/cm2 * min.
With `CCCCCCCC/C=C\CCCCCCCC(=O)OCC(O)CO` (stereo not shown) [Glycerol Monooleate], the “API Solubility mg/gm total mix” value in data set [1] is 71 mg/gm total mix. In addition, the HLB in data set [3] is 1.
As to `CCCCCCCC/C=C\CCCCCCCC(=O)O` [Oleic Acid], the “API Solubility mg/gm total mix” value in data set [1] is listed as less than 50 mg/gm total mix.
Turning to `CC(O)CO` (stereo not shown) [Propylene Glycol], in data set [1], the “API Solubility mg/gm total mix” value is on record as less than 30 mg/gm total mix.
On to `CNC[C@H](O)c1ccc(O)c(O)c1` [epinephrine], for which the “time after which amount leveled off” value in data set [4] is “about 40 minutes”.
